The nature of series [1]: Metabolic clearance in rat hepatocyte assessed as clearance measured per 10^6 cells. In kind it is ADME, cell-based. As to conditions: hepatocytes, read-out: CLH.
Series [2] deals with Hepatocyte. The series can be described thus: Metabolic clearance in human hepatocyte assessed as clearance. As to conditions: hepatocytes. In kind it is ADME, cell-based.

For `O=C(c1cnn(Cc2ccccc2)c1)N1CCOc2ccccc2C1`, the hepatocyte CLint in series [1] was determined as 87 µL/min/1e6 cells. Further, in series [2], the CLH was 42 µL/min/mg.
